ChEMBL document CHEMBL3397039, “Anti-inflammatory activity of phenolic compounds from the whole plant of Scutellaria indica” (Bioorg Med Chem Lett, 2015)

What was measured:
RAW264.7 [1] = assay: Toxicity against mouse RAW264.7 cells at 30 uM after 24 hrs in presence of LPS by MTT assay; type: cell-based; settings: raw264.7, 24 h
RAW264.7 [2] = assay: Anti-inflammatory activity in mouse RAW264.7 cells assessed as inhibition of LPS-induced nitric oxide production by Griess reaction based method; type: functional, cell-based
RAW264.7 [3] = assay: Toxicity against mouse RAW264.7 cells at 30 uM after 24 hrs in absence of LPS by MTT assay; type: cell-based; settings: raw264.7, 24 h
RAW264.7 [4] = assay: Inhibition of LPS-induced iNOS protein expression in mouse RAW264.7 cells by Western blotting method; type: functional, cell-based
RAW264.7 [5] = assay: Effect on alpha-tubulin protein expression in mouse RAW264.7 cells up to 30 uM by Western blotting method; type: ADME, cell-based

Row | SMILES | Activity (RAW264.7 [1]) | IC50 (RAW264.7 [2]) | Activity (RAW264.7 [3]) | inhibition (RAW264.7 [4]) | Activity (RAW264.7 [5])
1 | COc1c(O)cc(O)c2c(=O)cc(-c3ccc(O)cc3)oc12 [4'-HYDROXYWOGONIN] | Non-toxic | 12.5 µM | Non-toxic | – | –
2 | O=C(O)[C@H]1O[C@@H](Oc2c(O)cc(O)c3c(=O)cc(-c4ccccc4)oc23)[C@H](O)[C@@H](O)[C@@H]1O | Non-toxic | > 30 µM | Non-toxic | – | –
3 | O=c1cc(-c2ccc(O)c(O)c2)oc2cc(O)cc(O)c12 [LUTEOLIN] | Non-toxic | 7.2 µM | Non-toxic | Dose-dependent effect | Non-toxic
4 | COc1cc(O)c2c(c1OC)O[C@H](c1cc(O)ccc1O[C@@H]1O[C@H](CO)[C@@H](O)[C@H](OC(=O)c3ccc(O)cc3)[C@H]1O)CC2=O | Non-toxic | > 30 µM | Non-toxic | – | –
5 | COc1ccccc1[C@@H]1CC(=O)c2c(O)cc(O[C@@H]3O[C@H](CO)[C@@H](O)[C@H](O)[C@H]3O)c(OC)c2O1 | Non-toxic | > 30 µM | Non-toxic | – | –
6 | COc1c(O[C@@H]2O[C@H](C(=O)O)[C@@H](O)[C@H](O)[C@H]2O)cc(O)c2c1O[C@H](c1ccccc1O)CC2=O | Non-toxic | > 30 µM | Non-toxic | – | –
7 | COC(=O)[C@H]1O[C@@H](Oc2c(O)cc(O)c3c(=O)cc(-c4ccccc4)oc23)[C@H](O)[C@@H](O)[C@@H]1O | Non-toxic | > 30 µM | Non-toxic | – | –
8 | COc1cc(O)c2c(c1OC)O[C@H](c1cc(O)ccc1O[C@@H]1O[C@H](COC(C)=O)[C@@H](O)[C@H](O)[C@H]1O)CC2=O | Non-toxic | > 30 µM | Non-toxic | – | –
9 | COc1ccc([C@@H]2CC(=O)c3c(O)c(OC)c(OC)c(OC)c3O2)cc1 | Non-toxic | 27.8 µM | Non-toxic | – | –
10 | COc1cc(O)c2c(c1OC)O[C@H](c1c(O)cccc1O[C@@H]1O[C@H](CO)[C@@H](O)[C@H](O)[C@H]1O)CC2=O | Non-toxic | > 30 µM | Non-toxic | – | –
11 | COC(=O)[C@H]1O[C@@H](Oc2cc(O)c3c(c2OC)O[C@H](c2cccc(OC)c2)CC3=O)[C@H](O)[C@@H](O)[C@@H]1O | Non-toxic | > 30 µM | Non-toxic | – | –
12 | COC(=O)[C@H]1O[C@@H](Oc2ccccc2[C@@H]2CC(=O)c3c(O)cc(OC)c(OC)c3O2)[C@H](O)[C@@H](O)[C@@H]1O | Non-toxic | > 30 µM | Non-toxic | – | –
